In US20240270809A1, “ORAL GLP RECEPTOR AGONISTS” (priority 2020, published 2024):
Positions of bridges follow the written chain, without caps; N, C: chain ends. Non-standard residues stand in square brackets, D forms with d. Residues, ends and D or L forms follow the SMILES beside them. *: point of attachment. Malonyl(2,2-Me2,histaminyl) = CC(C)(C(=O)NCCc1cnc[nH]1)C(=O)*; Ala(1H-tetrazol-5-yl) = N[C@@H](Cc1nnn[nH]1)C(=O)O; αMePhe(2-F) = C[C@](N)(Cc1ccccc1F)C(=O)O; αMeL = CC(C)C[C@](C)(N)C(=O)O; Nle = CCCC[C@H](N)C(=O)O; Aib = CC(C)(N)C(=O)O

Columns and labels:
human GLP2 receptor = target: T1, human GLP2 receptor (Homo sapiens, UniProt O95838); experiment: cAMP accumulation assay, functional agonism of human GLP2 receptor; type: cell-based; conditions: HEK cells infected with human GLP2 receptor BacMam virus, HTRF cAMP; for Emax: HEK293, read-out: Human GLP-2R agonist cAMP Emax; for EC50: read-out: Human GLP-2R agonist cAMP pEC50 (converted)
T1 construct: expressed in transfected cells; host or cells: HEK cells, BacMam virus transduction
T1 sequence (O95838 1-553): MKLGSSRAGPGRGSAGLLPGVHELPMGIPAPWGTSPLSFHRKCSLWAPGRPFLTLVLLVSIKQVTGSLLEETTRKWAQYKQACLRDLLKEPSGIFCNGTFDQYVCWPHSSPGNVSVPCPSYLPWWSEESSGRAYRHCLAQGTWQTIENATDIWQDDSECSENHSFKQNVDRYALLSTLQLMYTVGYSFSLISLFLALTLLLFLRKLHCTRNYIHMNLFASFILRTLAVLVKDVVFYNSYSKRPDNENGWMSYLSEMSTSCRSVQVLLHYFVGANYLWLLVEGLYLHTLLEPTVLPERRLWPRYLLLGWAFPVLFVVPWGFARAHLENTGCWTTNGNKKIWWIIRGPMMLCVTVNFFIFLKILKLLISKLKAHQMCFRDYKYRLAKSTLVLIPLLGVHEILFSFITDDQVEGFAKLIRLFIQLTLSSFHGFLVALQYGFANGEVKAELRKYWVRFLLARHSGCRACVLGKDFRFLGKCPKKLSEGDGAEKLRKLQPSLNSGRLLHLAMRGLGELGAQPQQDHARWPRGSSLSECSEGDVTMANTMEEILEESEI
Procedure, shortened: (§1)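 Agonist-driven cAMP production was quantified by homogeneous time-resolved fluorescence. Receptor expression in HEK cells came from a 24-hour BacMam infection, and cells were frozen ahead of the assay. Incubation lasted 45 min at 37° C in HBSS supplemented with 0.5 mM IBMX.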

human GLP1 receptor = target: T2, human GLP1 receptor (Homo sapiens, UniProt P43220); experiment: cAMP accumulation assay, functional agonism of human GLP1 receptor; type: cell-based; conditions: HEK cells infected with human GLP1 receptor BacMam virus, HTRF cAMP; for Emax: HEK293, read-out: Human GLP-1R agonist cAMP Emax; for EC50: read-out: Human GLP-1R agonist cAMP pEC50 (converted)
T2 construct: expressed in transfected cells; host or cells: HEK cells, BacMam virus transduction
T2 sequence (P43220 24-463): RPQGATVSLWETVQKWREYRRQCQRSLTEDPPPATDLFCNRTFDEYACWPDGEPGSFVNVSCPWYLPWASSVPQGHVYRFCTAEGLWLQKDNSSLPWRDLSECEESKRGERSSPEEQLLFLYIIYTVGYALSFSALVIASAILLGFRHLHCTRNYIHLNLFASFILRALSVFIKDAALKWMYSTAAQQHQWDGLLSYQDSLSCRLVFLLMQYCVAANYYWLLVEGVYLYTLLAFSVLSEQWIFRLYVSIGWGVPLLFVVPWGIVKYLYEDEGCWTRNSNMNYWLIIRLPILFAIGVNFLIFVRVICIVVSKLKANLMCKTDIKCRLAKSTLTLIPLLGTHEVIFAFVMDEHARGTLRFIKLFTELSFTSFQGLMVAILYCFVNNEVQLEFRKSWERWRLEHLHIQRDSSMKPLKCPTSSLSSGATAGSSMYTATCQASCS
Procedure, shortened: as §1

[1] = Stability of peptides in Fasted-State Simulated Intestinal Fluid (FaSSIF); type: in vitro ADME; conditions: FaSSIF with 10 mg/ml pancreatin, 37° C.; for remaining at 0.5 h: t=30 mins, pH 6.5, 10 mg/ml pancreatin; for remaining at 0.25 h: FaSSIF pH 6.5 with 10 mg/ml pancreatin, t = 15 mins
Experimental: Stability of peptides was tested in Fasted-State Simulated Intestinal Fluid (FaSSIF) prepared according to manufacturer's protocol (Biorelevant, art.no. FFF01, pH 6.5). […] FaSSIF was pre-incubated for 15 min at 37° C. and spiked with test and reference item working solutions. Experiments were conducted in duplicate in a non-serial manner. The total incubation volume per replicate was 150 μl. Sampling time points for test items were 0, 0.5, 2, 5, 10, 15 and 30 min. All samples and calibration standards (prepared in FaSSIF) were precipitated by addition of 300 μl precipitant (ACN / 2% acetic acid / 0.2% HFBA, (precipitation reagent, PR)) containing internal standard (ISTD) to 150 μl sample. After incubation for 1 h at room temperature all samples were centrifuged for 10 min at 2,200×g (room temperature).

Structure (SMILES): CCCC[C@H](NC(=O)[C@H](CCC(=O)O)NC(=O)[C@@H]1CC(=O)NCCCC[C@H](NC(=O)[C@H](Cc2nn[nH]n2)NC(=O)C(C)(C)C(=O)NCCc2c[nH]cn2)C(=O)N[C@@H](CO)C(=O)N[C@@H](Cc2ccccc2)C(=O)N[C@@H](CO)C(=O)N1)C(=O)N[C@H](Cc1ccccc1)C(=O)N[C@H](C(=O)N[C@@](C)(CC(C)C)C(=O)N[C@@H](CC(C)C)C(=O)N[C@@H](CC(=O)O)C(=O)N[C@H]1CCC(=O)NCCCC[C@@H](C(=O)N[C@@H](CC(=O)O)C(=O)N[C@@H](Cc2ccccc2)C(=O)N[C@H](C(=O)N[C@H]2CCC(=O)NCCCC[C@@H](C(=O)N[C@H](C(=O)N[C@@H](CCCCN)C(N)=O)[C@@H](C)O)NC(=O)[C@H]([C@@H](C)CC)NC(=O)[C@H](CC(C)C)NC(=O)[C@H](Cc3c[nH]c4ccccc34)NC2=O)[C@@H](C)CC)NC(=O)[C@H](C)NC(=O)[C@H](C)NC(=O)[C@H](CCCCN)NC1=O)[C@@H](C)O [Example 17] ({Malonyl(2,2-Me2,histaminyl)}-[Ala(1H-tetrazol-5-yl)]KSFSDE[Nle][dF]T[αMeL]LDEKAAKDFIEWLIKTK-NH2; lactam 2-6, 14-18, 22-26; C-terminus assumed)
- Emax (human GLP2 receptor): 104%
- EC50 (human GLP2 receptor): 0.0398 nM
- Emax (human GLP1 receptor): 96.3%
- EC50 (human GLP1 receptor): 0.158 nM
- remaining at 0.5 h [1]: 68.7%

Structure (SMILES): CCCC[C@@H]1NC(=O)[C@H](CCC(=O)O)NC(=O)[C@@H](NC(=O)[C@H](CO)NC(=O)[C@H](Cc2ccccc2)NC(=O)[C@H](CO)NC(=O)CNC(=O)[C@H](Cc2nn[nH]n2)NC(=O)C(C)(C)C(=O)NCCc2c[nH]cn2)CCCCNC(=O)C[C@@H](C(=O)N[C@H](C(=O)N[C@@H](CC(C)C)C(=O)N[C@@H](CC(=O)O)C(=O)N[C@H]2CCC(=O)NCCCC[C@@H](C(=O)N[C@@H](CC(=O)O)C(=O)N[C@@H](Cc3ccccc3)C(=O)N[C@H](C(=O)N[C@@H](CC(N)=O)C(=O)N[C@@H](Cc3c[nH]c4ccccc34)C(=O)N[C@@H](CC(C)C)C(=O)N[C@H](C(=O)N[C@@H](CCC(N)=O)C(=O)N[C@H](C(=O)N[C@H]3CCC(=O)NCCCC[C@@H](C(N)=O)NC(=O)[C@H]([C@@H](C)O)NC(=O)[C@H]([C@@H](C)CC)NC3=O)[C@@H](C)O)[C@@H](C)CC)[C@@H](C)CC)NC(=O)[C@H](C)NC(=O)C(C)(C)NC(=O)[C@H](CCCCN)NC2=O)[C@@H](C)CC)NC(=O)[C@@H](Cc2ccccc2)NC1=O [Example 12] ({Malonyl(2,2-Me2,histaminyl)}-[Ala(1H-tetrazol-5-yl)]GSFSKE[Nle][dF]DILDEK[Aib]AKDFINWLIQTEITK-NH2; lactam 6-10, 14-18, 28-31; C-terminus assumed)
- Emax (human GLP2 receptor): 105%
- EC50 (human GLP2 receptor): 0.0501 nM
- Emax (human GLP1 receptor): 94.5%
- EC50 (human GLP1 receptor): 0.251 nM
- remaining at 0.5 h [1]: 10.7%

Structure (SMILES): CCCC[C@@H]1NC(=O)[C@H](CCC(=O)O)NC(=O)[C@@H](NC(=O)[C@H](CO)NC(=O)[C@](C)(Cc2ccccc2F)NC(=O)[C@H](CO)NC(=O)CNC(=O)[C@H](CC(=O)O)NC(=O)C(C)(C)NC(=O)[C@@H](N)Cc2c[nH]cn2)CCCCNC(=O)C[C@@H](C(=O)N[C@H](C(=O)N[C@@H](CC(C)C)C(=O)N[C@@H](CC(=O)O)C(=O)N[C@H]2CCC(=O)NCCCC[C@@H](C(=O)N[C@@H](CC(=O)O)C(=O)N[C@@H](Cc3ccccc3)C(=O)N[C@H](C(=O)N[C@@H](CC(N)=O)C(=O)N[C@@H](Cc3c[nH]c4ccccc34)C(=O)N[C@@H](CC(C)C)C(=O)N[C@H](C(=O)N[C@@H](CCC(N)=O)C(=O)N[C@H]3CCC(=O)NCCCC[C@@H](C(N)=O)NC(=O)[C@H]([C@@H](C)O)NC(=O)[C@H]([C@@H](C)CC)NC(=O)[C@H](CCCCN)NC3=O)[C@@H](C)CC)[C@@H](C)CC)NC(=O)[C@H](C)NC(=O)[C@H](C)NC(=O)[C@H](CCCCN)NC2=O)[C@@H](C)CC)NC(=O)[C@@H](Cc2ccccc2)NC1=O [Example 18] (H-H[Aib]DGS[αMePhe(2-F)]SKE[Nle][dF]DILDEKAAKDFINWLIQEKITK-NH2; lactam 8-12, 16-20, 29-33; C-terminus assumed)
- Emax (human GLP2 receptor): 104%
- EC50 (human GLP2 receptor): 0.0158 nM
- Emax (human GLP1 receptor): 97.8%
- EC50 (human GLP1 receptor): 0.1 nM
- remaining at 0.5 h [1]: 17.3%

Structure (SMILES): CCCC[C@@H]1NC(=O)[C@H](CCC(=O)O)NC(=O)[C@@H](NC(=O)[C@H](CO)NC(=O)[C@H](Cc2ccccc2)NC(=O)[C@H](CO)NC(=O)CNC(=O)[C@H](CC(=O)O)NC(=O)C(C)(C)NC(=O)[C@@H](N)Cc2c[nH]cn2)CCCCNC(=O)C[C@@H](C(=O)N[C@H](C(=O)N[C@@H](CC(C)C)C(=O)N[C@@H](CC(=O)O)C(=O)N[C@H]2CCC(=O)NCCCC[C@@H](C(=O)N[C@@H](CC(=O)O)C(=O)N[C@@H](Cc3ccccc3)C(=O)N[C@H](C(=O)N[C@@H](CC(N)=O)C(=O)N[C@@H](Cc3c[nH]c4ccccc34)C(=O)N[C@@H](CC(C)C)C(=O)N[C@H](C(=O)N[C@@H](CCC(N)=O)C(=O)N[C@H]3CCC(=O)NCCCC[C@@H](C(N)=O)NC(=O)[C@H]([C@@H](C)O)NC(=O)[C@H]([C@@H](C)CC)NC(=O)[C@H](CCCCN)NC3=O)[C@@H](C)CC)[C@@H](C)CC)NC(=O)[C@H](C)NC(=O)[C@H](C)NC(=O)[C@H](CCCCN)NC2=O)[C@@H](C)CC)NC(=O)[C@@H](Cc2ccccc2)NC1=O [Example 4] (H-H[Aib]DGSFSKE[Nle][dF]DILDEKAAKDFINWLIQEKITK-NH2; lactam 8-12, 16-20, 29-33 (inferred); C-terminus assumed)
- Emax (human GLP2 receptor): 103%
- EC50 (human GLP2 receptor): 0.01 nM
- Emax (human GLP1 receptor): 94.7%
- EC50 (human GLP1 receptor): 0.501 nM
- remaining at 0.5 h [1]: 4.3%

Structure (SMILES): CCCC[C@H](NC(=O)[C@H](CCC(=O)O)NC(=O)[C@H](CC(=O)O)NC(=O)[C@H](CO)NC(=O)[C@H](Cc1ccccc1)NC(=O)[C@H](CO)NC(=O)CNC(=O)[C@H](CC(=O)O)NC(=O)C(C)(C)NC(=O)[C@@H](N)Cc1c[nH]cn1)C(=O)N[C@H]1CC(=O)NCCCC[C@@H](C(=O)N[C@@H](CC(C)C)C(=O)N[C@@H](CCCCN)C(=O)N[C@@H](C)C(=O)N[C@@H](C)C(=O)N[C@@H](CCCCN)C(=O)N[C@@H](CC(=O)O)C(=O)N[C@@H](Cc2ccccc2)C(=O)N[C@H](C(=O)N[C@@H](CC(N)=O)C(=O)N[C@@H](Cc2c[nH]c3ccccc23)C(=O)N[C@@H](CC(C)C)C(=O)N[C@H](C(=O)N[C@@H](CCC(N)=O)C(=O)N[C@H](C(=O)N[C@@H](CCCCN)C(=O)N[C@H](C(=O)N[C@H](C(=O)N[C@@H](CC(=O)O)C(N)=O)[C@@H](C)O)[C@@H](C)CC)[C@@H](C)O)[C@@H](C)CC)[C@@H](C)CC)NC(=O)[C@H](CC(C)C)NC(=O)[C@H]([C@@H](C)CC)NC(=O)[C@H]([C@@H](C)O)NC1=O [Example 86] (H-H[Aib]DGSFSDE[Nle]DTILKLKAAKDFINWLIQTKITD-NH2; lactam 11-15; C-terminus assumed)
- Emax (human GLP2 receptor): 103%
- EC50 (human GLP2 receptor): 0.0251 nM
- Emax (human GLP1 receptor): 93.5%
- EC50 (human GLP1 receptor): 25.1 nM
- remaining at 0.25 h [1]: 5.1%

Structure (SMILES): CCCC[C@@H]1NC(=O)[C@H](CCC(=O)O)NC(=O)[C@H](CC(=O)O)NC(=O)[C@@H](NC(=O)[C@H](Cc2ccccc2)NC(=O)[C@H](CO)NC(=O)CNC(=O)[C@H](CC(=O)O)NC(=O)C(C)(C)NC(=O)[C@@H](N)Cc2c[nH]cn2)CCC(=O)NCCCC[C@@H](C(=O)N[C@H](C(=O)N[C@H](C(=O)N[C@@H](CC(C)C)C(=O)N[C@@H](CC(=O)O)C(=O)N[C@@H](CC(C)C)C(=O)N[C@@H](CCCCN)C(=O)N[C@@H](C)C(=O)N[C@@H](C)C(=O)N[C@@H](CCCCN)C(=O)N[C@@H](CC(=O)O)C(=O)N[C@@H](Cc2ccccc2)C(=O)N[C@H](C(=O)N[C@@H](CC(N)=O)C(=O)N[C@@H](Cc2c[nH]c3ccccc23)C(=O)N[C@@H](CC(C)C)C(=O)N[C@H](C(=O)N[C@@H](CCC(N)=O)C(=O)N[C@H](C(=O)N[C@H]2CCC(=O)NCCCC[C@@H](C(N)=O)NC(=O)[C@H]([C@@H](C)O)NC(=O)[C@H]([C@@H](C)CC)NC2=O)[C@@H](C)O)[C@@H](C)CC)[C@@H](C)CC)[C@@H](C)CC)[C@@H](C)O)NC1=O [Example 111] (H-H[Aib]DGSFEDE[Nle]KTILDLKAAKDFINWLIQTEITK-NH2; lactam 7-11, 30-33 (inferred); C-terminus assumed)
- Emax (human GLP2 receptor): 104%
- EC50 (human GLP2 receptor): 0.631 nM
- Emax (human GLP1 receptor): 93.2%
- EC50 (human GLP1 receptor): 0.794 nM
- remaining at 0.25 h [1]: 26.9%
